Like-named read-outs stand apart in the source and are kept apart here.
Tests used:
[1] = test system: human breast cancer cell strain MCF-7; experiment: MTT proliferation inhibition, MCF-7; type: cell-based; details: 48 h, read-out: Inhibitory activity (IC50) against proliferation, MCF-7
Description: (§1) The anti-tumor activity of the compounds of the present invention was determined by the method of methyl thiazolyl tetrazolium (MTT), Bardoxolone Methyl (CDDO-Me) being selected as a positive control medicament.
(§2) Instruments: ultra-clean bench (SW-CJ-1FD, AIRTECH, Suzhou Antai Airtech Co. Ltd.), constant-temperature CO2 incubator (3111, Thermo, USA), inverted biomicroscope (IX71, OLYMPUS, Japan), ELISA microplate reader (Model 680, BIO-RAD, USA), platform shaker (Kylin-bell lab Instruments), autoclave (YXO.SG4I.280, Shanghai Huaxian), and centrifuge (SIGMA).
(§3) Reagents: DMEM (GIBCO), fetal bovine serum (GIBCO), trypsin (SIGMA), and DMSO (SIGMA).
(§4) Cell strains: human non-small cell lung cancer cell strain A549, human liver cancer cell strain HepG2, human breast cancer cell strain MCF-7, human renal tubular epithelial cells HK-2, rat embryonic cardiomyocytes H9C2 (all provided by Jiangsu KeyGEN BioTECH Co., Ltd.).
(§5) Methods: the cryopreserved cell strains were resuscitated and cultured in a CO2 incubator at a constant temperature of 37° C. with liquid being changed once daily. Plating was carried out when the cell strains were in a good state in the exponential phase. 1 mL of 0.25% trypsin solution was added for digestion for 1-2 min. The cell status was observed under the microscope, and when the adherent cells became round and shrunk, the digestion solution was aspirated and 1-2 mL of a DMEM medium containing 10% fetal bovine serum was added to obtain a cell suspension, on which a cell count was performed. The amount of required cell suspension was calculated on the basis of 5×10^4 cells per well and the total number of wells. The cell suspension was inoculated on a 96-well plate at 100 μL/well, the surroundings being blocked with PBS, followed by incubation in a CO2 incubator at a constant temperature of 37° C. for 24 h.
(§6) The test medicament, positive control medicament CDDO-Me, and blank control group DMSO were prepared in DMEM media to a final concentration of 5 μM/well, each medicament being placed in 3 replicate wells, followed by incubation for 48 h. The MTT reagent was added to the 96-well plate at 10 μL/well to further incubate for 4 h. The medium in the plate was aspirated and 100 μL of DMSO was added to each well, followed by shaking on the platform shaker for 10 min such that the crystals were dissolved. The absorbance of each well was examined by the ELISA microplate reader at a wavelength of 570 nm, and the cell inhibition rate was calculated according to the formula hereinafter. The mean value of three preliminary screening results was taken as the final inhibition rate thereof.
(§7) Cell inhibition rate (%)=[(OD value of blank control−OD value of dosing cohort)/OD value of blank control group]×100%

[2] = test system: human liver cancer cell strain HepG2; experiment: MTT proliferation inhibition, HepG2; type: cell-based; details: HepG2 cells, 48 h, read-out: Inhibitory activity (IC50) against proliferation, HepG2
Description: as §1, §2, §3, §4, §5
The MTT reagent was added to the 96-well plate at 10 μL/well to further incubate for 4 h. The medium in the plate was aspirated and 100 μL of DMSO was added to each well, followed by shaking on the platform shaker for 10 min such that the crystals were dissolved. […] The mean value of three preliminary screening results was taken as the final inhibition rate thereof.
as §7

[3] = test system: human renal tubular epithelial cells HK-2; experiment: MTT proliferation inhibition / toxicity, HK-2; type: cell-based; details: for IC50: HK-2 cells, MTT, 48 h, read-out: Inhibitory activity (IC50) against proliferation, HK-2; for toxicity to human renal tubular epithelial cells HK-2: statement in words
Description: as §1, §2, §3, §4, §5, §6, §7

[4] = test system: M-MDSC, PMN-MDSC; experiment: Spleen M-MDSC / PMN-MDSC by flow cytometry in S180 tumor-bearing mice; type: in vivo, ICR mice; details: 7 days; for M-MDSC: CD11b+LY6Chi+; for PMN-MDSC: CD11b+LY6G+
Description: (§8) 1) Experimental animals: 72 female ICR mice between 6 and 8 weeks of age; experimental cells: S180 ascitic tumor cells.
(§9) 8 animals were used as the normal group, and the rest of the mice were subjected to modeling by the following method.
(§10) 2) Proliferation and passaging of S180 ascitic tumor cells: S180 ascitic tumor cells cryopreserved at −80° C. were thawed in a water bath at 37° C., placed in a 12 mL centrifuge tube, to which an appropriate amount of saline was added, and centrifuged at 1200 rpm for 5 min. The supernatant was discarded, then the cells were resuspended in 300 μL of saline and intraperitoneally injected into an ICR mouse. As the mouse's abdomen swelled up, intraperitoneal injection of the cells in a second ICR mouse was performed, and the cells were ready for inoculation when the abdomen thereof swelled up.
(§11) 3) Inoculation of S180 tumor cells in the armpit of mice: S180 cells cultured to 2 passages were centrifuged and saline was added to obtain a concentration of 1×10^7 cells/mL. A volume of 100 μL of the cells were injected subcutaneously into armpit of mice. A mouse tumor-bearing model was developed.
(§12) The model mice were divided into a tumor-bearing model group, a compound I-7 5 mg/kg group, a compound I-7 15 mg/kg group, a compound I-12 5 mg/kg group, a compound I-12 15 mg/kg group, a compound I-16 5 mg/kg group, a compound I-16 15 mg/kg group and a CDDO-Me 15 mg/kg group.
(§13) There were 8 mice in each group.
(§14) 4) Dosing: the medicaments were administered intragastrically when the tumor grew out.
(§15) An equal volume of 0.5% croscarmellose sodium was administered to the normal group and the model group.
(§16) The dosing was executed for 7 consecutive days. The mice were dissected the next day following the last dosing.
(§17) Testing items: the body weight, spleen weight and tumor weight were measured. The spleens were ground on ice, followed by red blood cell lysis and incubation with FITC-CD11b, LY6C, and LY6G antibodies for 15 min, and then tested for CD11b+LY6Chi+ and CD11b+LY6G+ with flow cytometry.

[5] = test system: S180 ascitic tumor cells; experiment: Inhibitory effect on tumors in S180 tumor-bearing mice; type: in vivo, ICR mice; details: for Tumor Mass / Tumor inhibition rate: 7 consecutive days; for Splenic index: 7 days
Description: as §8, §9, §10, §11, §12, §13, §14
Compound I-7 of 5 mg/kg was administered in the compound I-7 5 mg/kg group;
compound I-7 of 15 mg/kg was administered in the compound I-7 15 mg/kg group;
compound I-12 of 5 mg/kg was administered in the compound I-12 5 mg/kg group;
compound I-12 of 15 mg/kg was administered in the compound I-12 15 mg/kg group;
compound I-16 of 5 mg/kg was administered in the compound I-16 5 mg/kg group;
compound I-16 of 15 mg/kg was administered in the compound I-16 15 mg/kg group; and
CDDO-Me of 15 mg/kg was administered in the CDDO-Me 15 mg/kg group.
as §15, §16, §17

[6] = test system: human non-small cell lung cancer cell strain A549; experiment: MTT proliferation inhibition, A549; type: cell-based; details: A549 cells, 48 h, read-out: Inhibitory activity (IC50) against proliferation, A549
Description: as §1, §2, §3, §4, §5, §6, §7

[7] = test system: rat embryonic cardiomyocytes H9C2; experiment: MTT proliferation inhibition / toxicity, H9C2; type: cell-based; details: for IC50: H9C2 cardiomyocytes, MTT, 48 h, read-out: Inhibitory activity (IC50) against proliferation, H9C2; for inhibitory activity against normal cardiomyocytes H9C2 relative to CDDO-Me: fraction of the inhibitory activity of CDDO-Me
Description: as §1, §2, §3, §4, §5, §6, §7

[8] = Homo sapiens, MCF7, MCF-7 cells

For `COC(=O)[C@]12CCC(C)(C)C[C@H]1[C@H]1C(=O)C=C3[C@@]4(C)C=C(C#N)C(=O)C(C)(C)[C@@H]4CC[C@@]3(C)[C@]1(C)CC2` [CDDO-Me, 2-cyano-3,12-dioxoolean-1,9(11)-dien-28-oic acid methyl ester, reference compound], the IC50 ([1]; MCF-7 cells) was 728 ± 288 nM, the IC50 [2] was 326 ± 21 nM and the IC50 [3] was 335 ± 34 nM. For the same compound, the M-MDSC ([4]; 15 mg/kg intragastric) was 1.15 ± 0.12 %, the PMN-MDSC ([4]; 15 mg/kg intragastric) was 10.91 ± 1.62 % and the “Tumor Mass” value ([5]; 15 mg/kg intragastric) was 1.67 ± 0.14 g. The Tumor inhibition rate ([5]; 15 mg/kg intragastric) was 36.75%, the Splenic index ([5]; 15 mg/kg intragastric) was 53.61 ± 4.15 10*mg/g and the IC50 [6] was 448 ± 12 nM. For the same compound, the IC50 [7] was 0.308 ± 0.01 µM.

For `CC1(C)CC[C@]2(NC(=O)/C(C#N)=C/c3ccccc3)CC[C@]3(C)[C@H](C(=O)C=C4[C@@]5(C)C=C(C#N)C(=O)C(C)(C)[C@@H]5CC[C@]43C)[C@@H]2C1` [Compound I-7], the IC50 [1, 8] was 2225 ± 22 nM, the IC50 ([2]; Homo sapiens) was 2720 ± 36 nM and the IC50 ([3]; Homo sapiens) was 1780 ± 259 nM. The “toxicity to human renal tubular epithelial cells HK-2” value [3] was “lower toxicity”, the M-MDSC ([4]; 5 mg/kg intragastric) was 0.68 ± 0.22 % and the PMN-MDSC ([4]; 5 mg/kg intragastric) was 8.72 ± 1.13 %. The M-MDSC ([4]; 15 mg/kg intragastric) was 0.59 ± 0.09 %, the PMN-MDSC ([4]; 15 mg/kg intragastric) was 6.34 ± 1.47 % and the “Tumor Mass” value ([5]; 5 mg/kg intragastric) was 1.53 ± 0.10 ^ g. The Tumor inhibition rate ([5]; 5 mg/kg intragastric) was 42.17%, the Splenic index ([5]; 5 mg/kg intragastric) was 48.55 ± 4.62^##* 10*mg/g and the “Tumor Mass” value ([5]; 15 mg/kg intragastric) was 1.45 ± 0.12 g. For the same compound, the Tumor inhibition rate ([5]; 15 mg/kg intragastric) was 45.20%, the Splenic index ([5]; 15 mg/kg intragastric) was 47.03 ± 6.54^##* 10*mg/g and the IC50 ([6]; Homo sapiens) was 315 ± 68 nM. The IC50 [7] was 3.17 ± 1.74 µM, the IC50 ([7]; Rattus norvegicus, H9c2, 48 h) was 3.18 ± 1.74 µM and the “inhibitory activity against normal cardiomyocytes H9C2 relative to CDDO-Me” value [7] was “approximately 1/10”.

Compound `CC1(C)CC[C@]2(NC(=O)/C(C#N)=C/c3ccc(F)cc3)CC[C@]3(C)[C@H](C(=O)C=C4[C@@]5(C)C=C(C#N)C(=O)C(C)(C)[C@@H]5CC[C@]43C)[C@@H]2C1` [Compound I-11] has an IC50 [1, 8] of 424 ± 129 nM, an IC50 ([2]; Homo sapiens) of 337 ± 12 nM and an IC50 ([3]; Homo sapiens) of 308 ± 71 nM. The IC50 ([6]; Homo sapiens) was 609 ± 67 nM and the IC50 ([7]; Rattus norvegicus) was 0.052 ± 0.001 µM.

In the case of `CC1(C)CC[C@]2(NC(=O)/C(C#N)=C/c3ccc(Cl)cc3)CC[C@]3(C)[C@H](C(=O)C=C4[C@@]5(C)C=C(C#N)C(=O)C(C)(C)[C@@H]5CC[C@]43C)[C@@H]2C1` [Compound I-12], the IC50 [1, 8] is reported as 1640 ± 462 nM, the IC50 ([2]; Homo sapiens) is reported as 974 ± 58 nM and the IC50 ([3]; Homo sapiens) is reported as 2430 ± 33 nM. The “toxicity to human renal tubular epithelial cells HK-2” value [3] was “lower toxicity”, the M-MDSC ([4]; 5 mg/kg intragastric) was 0.63 ± 0.13 % and the PMN-MDSC ([4]; 5 mg/kg intragastric) was 8.86 ± 1.53 %. For the same compound, the M-MDSC ([4]; 15 mg/kg intragastric) was 0.38 ± 0.23 %, the PMN-MDSC ([4]; 15 mg/kg intragastric) was 4.82 ± 0.62 % and the “Tumor Mass” value ([5]; 5 mg/kg intragastric) was 1.33 ± 0.11 g. The Tumor inhibition rate ([5]; 5 mg/kg intragastric) was 49.55%, the Splenic index ([5]; 5 mg/kg intragastric) was 45.99 ± 7.68^##* 10*mg/g and the “Tumor Mass” value ([5]; 15 mg/kg intragastric) was 0.66 ± 0.14 g. The Tumor inhibition rate ([5]; 15 mg/kg intragastric) was 74.96%, the Splenic index ([5]; 15 mg/kg intragastric) was 44.37 ± 5.27^###** 10*mg/g and the IC50 ([6]; Homo sapiens) was 761 ± 32 nM. The IC50 ([7]; Rattus norvegicus) was 3.14 ± 1.53 µM and the “inhibitory activity against normal cardiomyocytes H9C2 relative to CDDO-Me” value [7] was “approximately 1/10”.

Source: US20230023332A1, “OLEAN-PHENYLACRYLAMIDE DERIVATIVE, METHOD FOR PREPARING SAME, AND USE THEREOF” (Lunan Pharmaceutical Group Corporation, priority 2019, published 2023)
